We go through three molecules from publication PMC467089, “Click estradiol dimers with novel aromatic bridging units: synthesis and anticancer evaluation” (Journal of Enzyme Inhibition and Medicinal Chemistry, 2024).

Series [1] deals with CCRF-CEM lymphoblasts. Briefly: BrU incorporation analysis (RNA synthesis). The format is cell-based, human. The settings on record: for RNA synthesis, BrU incorporation (in words): 1× and 5×IC50, 24 h, gated remaining live cells. In a few lines:
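CCRF-CEM cells were treated with compounds for 24 h, then pulsed with 1 mM BrU for 30 min and fixed in 1% paraformaldehyde/0.05% NP-40. BrU was detected with a cross-reacting anti-BrdU antibody and FITC secondary, with propidium iodide/RNase counterstain; value is percentage of BrU-positive cells by flow cytometry.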

Series [2] concerns K562 (chronic myelogenous leukaemia). Briefly: MTS cytotoxicity assay, K562. It is filed as cell-based. The settings on record: Homo sapiens, K562; MTS assay, 72-h incubation, mean ± SD of 3 independent experiments; read-out: IC50 cytotoxic activity K562. Summed up: (§1)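 Cells kept in recommended medium with 10% foetal calf serum and penicillin/streptomycin at 37 °C, 5% CO2, seeded overnight, then exposed to fourfold serial DMSO dilutions of compound for 72 h. Viability was read with MTS reagent; technical duplicates, three biological replicates.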
Background: Tetrazolium dyes change colour on reduction, which living cells bring about.

Series [3] can be described thus: MTS cytotoxicity assay, HUVEC. The format is cell-based. The settings on record: human, HUVEC cells (umbilical vein endothelial cells); MTS assay, 72-h incubation, mean ± SD of 3 independent experiments; read-out: IC50 cytotoxic activity HUVEC. Summed up:
(§2)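 Viability is measured by MTS after cells, seeded overnight, receive fourfold-diluted compounds for 72 h at 37 °C.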

Series [4] has as its system CEM-DNR (daunorubicin resistant variant of CCRF-CEM). Briefly: MTS cytotoxicity assay, CEM-DNR. The format is cell-based, human. The conditions noted are these: Homo sapiens, CEM-DNR; MTS assay, 72-h incubation, mean ± SD of 3 independent experiments; read-out: IC50 cytotoxic activity CEM-DNR. Summed up: as §2
Series [5] relates to A549 (lung adenocarcinoma). Briefly: MTS cytotoxicity assay, A549. The conditions noted are these: MTS assay, 72-h incubation, mean ± SD of 3 independent experiments; for IC50: Homo sapiens, A549, read-out: IC50 cytotoxic activity A549. The format is cell-based, human. In a few lines:
as §2

Series [6] has as its system CCRF-CEM lymphoblasts. Briefly: Phospho-histone H3 (Ser10) mitotic marker, flow cytometry. It is filed as cell-based, human. In a few lines: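 Mitotic fraction scored by flow cytometry (488 nm) using Ser10-phosphorylated histone H3 antibody plus propidium iodide DNA stain, following RNase. CCRF-CEM lymphoblasts had 24 h compound exposure before ethanol fixation and Triton X-100 permeabilisation; events below G1 DNA content classed as fragmented-DNA, non-viable cells.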
On the technique in general: Flow cytometry measures light scatter and fluorescence of single cells or particles in a stream.

A short description of series [7]: MTS cytotoxicity assay, MRC-5. It is filed as cell-based. The settings on record: human, MRC-5 cells (non-tumour fibroblasts); MTS assay, 72-h incubation, mean ± SD of 3 independent experiments; read-out: IC50 cytotoxic activity MRC-5. Summed up:
as §1

Series [8] is described as follows: MTS cytotoxicity assay, BJ. The settings on record: human, BJ cells (non-tumour skin fibroblasts); MTS assay, 72-h incubation, mean ± SD of 3 independent experiments; read-out: IC50 cytotoxic activity BJ. The format is cell-based. In a few lines:
as §2

For another series, the system named is U2OS (osteosarcoma). Description: MTS cytotoxicity assay, U2OS. It is filed as cell-based, human. The settings on record: MTS assay, 72-h incubation, mean ± SD of 3 independent experiments; for IC50: Homo sapiens, U2OS, read-out: IC50 cytotoxic activity U2OS. Summed up:
as §2

For the next series, the target named is T1, porcine brain tubulin (Sus scrofa, UniProt P02550+P02554).
T1 construct: purchased Cytoskeleton, Denver, CO; host or cells: porcine brain (tissue-purified)
Briefly: Tubulin polymerisation assay. The format is biochemical. The settings on record: for inhibitory activity against tubulin polymerisation (in words): 10 μmol/L, Vmax relative to DMSO; for IC50: dose-response, mean ± SD of two independent experiments, read-out: IC50 inhibition of tubulin assembly; for inhibition at 10 µM: read-out: Tubulin polymerisation inhibition. In a few lines:
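Test compounds (10 μmol/L) or DMSO vehicle added to >99% pure porcine brain tubulin. Polymerisation read at 37 °C on a plate reader, and Vmax taken from each curve.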

The subject of series [9] is K562-TAX (paclitaxel-resistant variant of K562). Description: MTS cytotoxicity assay, K562-TAX. It is filed as cell-based, human. The conditions noted are these: Homo sapiens, K562-Tax; MTS assay, 72-h incubation, mean ± SD of 3 independent experiments; read-out: IC50 cytotoxic activity K562-TAX. Summed up: as §2

“Also recorded” adds a separate entry of the source.

T1 sequence (P02550 whole entry): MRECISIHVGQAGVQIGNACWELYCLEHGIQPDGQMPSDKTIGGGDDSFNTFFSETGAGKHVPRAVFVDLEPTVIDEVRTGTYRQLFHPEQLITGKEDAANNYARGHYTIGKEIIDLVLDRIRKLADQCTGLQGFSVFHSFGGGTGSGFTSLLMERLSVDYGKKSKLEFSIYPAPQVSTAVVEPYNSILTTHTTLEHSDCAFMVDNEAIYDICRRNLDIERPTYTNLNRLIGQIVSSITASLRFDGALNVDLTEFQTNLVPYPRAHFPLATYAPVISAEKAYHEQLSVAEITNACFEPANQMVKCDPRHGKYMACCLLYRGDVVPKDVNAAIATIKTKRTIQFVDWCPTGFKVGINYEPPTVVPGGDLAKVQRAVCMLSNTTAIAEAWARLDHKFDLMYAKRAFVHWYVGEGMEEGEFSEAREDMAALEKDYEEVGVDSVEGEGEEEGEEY
T1 sequence (P02554 whole entry): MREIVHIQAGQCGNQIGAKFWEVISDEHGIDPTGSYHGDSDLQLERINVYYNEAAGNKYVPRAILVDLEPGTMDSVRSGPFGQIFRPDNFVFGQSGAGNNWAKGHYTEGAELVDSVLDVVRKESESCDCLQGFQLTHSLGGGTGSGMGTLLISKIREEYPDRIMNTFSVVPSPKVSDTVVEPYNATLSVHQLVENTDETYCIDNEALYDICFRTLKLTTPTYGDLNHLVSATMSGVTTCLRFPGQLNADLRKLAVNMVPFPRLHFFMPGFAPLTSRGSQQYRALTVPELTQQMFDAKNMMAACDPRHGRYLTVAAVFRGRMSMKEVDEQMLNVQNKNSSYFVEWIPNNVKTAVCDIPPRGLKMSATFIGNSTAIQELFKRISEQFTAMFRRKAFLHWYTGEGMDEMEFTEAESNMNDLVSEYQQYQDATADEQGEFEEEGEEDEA

Consider `COc1cc(Cn2cc([C@]3(O)CC[C@H]4[C@@H]5CCc6cc(O)ccc6[C@H]5CC[C@@]43C)nn2)cc(Cn2cc([C@]3(O)CC[C@H]4[C@@H]5CCc6cc(O)ccc6[C@H]5CC[C@@]43C)nn2)c1` [ED3, (17β,17′β)-17,17′-[(5-Methoxybenzene-1,3-diyl)bis(methanediyl-1H-1,2,3-triazole-1,4-diyl)]bisestra-1,3,5(10)-triene-3,17-diol], for which the “RNA synthesis, BrU incorporation (in words)” value in the series with CCRF-CEM lymphoblasts [1] is given as “high rate of RNA synthesis”. For the same molecule, the “BrU, % of positive cells” value stood at 68.66% in the series with CCRF-CEM lymphoblasts [1] (1×IC50, 24 h) and 60.00% in the series on CCRF-CEM lymphoblasts [1] (5×IC50, 24 h). The IC50 (commonly the concentration that inhibits the measured activity by half) in series [2] is 330 ± 74 nM; in series [4], more than 50000 nM; in series [5], 600 ± 47 nM; in the series on U2OS (osteosarcoma), 610 ± 33 nM; at porcine brain tubulin, 2240 ± 1540 nM; in series [9], more than 50000 nM. Also, the IC50 at 72 h in series [3] was less than 12.2 nM; in series [7], more than 50000 nM; in series [8] it was more than 50000 nM. The “mitosis-specific phosphorylation of histone H3 (in words)” value with CCRF-CEM lymphoblasts [6] (1× and 5×IC50, 24 h) was “did not induce an increase of mitosis-specific phosphorylation of histone H3”. Besides, the “pH3Ser10, % of positive cells” value is given as 1.43% with CCRF-CEM lymphoblasts [6] (1×IC50, 24 h) and 0.77% with CCRF-CEM lymphoblasts [6] (5×IC50, 24 h). Further, the “inhibitory activity against tubulin polymerisation (in words)” value on porcine brain tubulin is on record as “comparable or better inhibitory activity”. The inhibition (in general, the relative decrease from the control value, in per cent) at 10 µM on porcine brain tubulin stood at 31.6%.
Turning to `C[C@]12CC[C@@H]3c4ccc(O)cc4CC[C@H]3[C@@H]1CC[C@@]2(O)c1cn(Cc2cc(Cn3cc([C@]4(O)CC[C@H]5[C@@H]6CCc7cc(O)ccc7[C@H]6CC[C@@]54C)nn3)cc(OCCO)c2)nn1` [ED5, (17β,17′β)-17,17′-{[5-(2-Hydroxyethoxy)benzene-1,3-diyl]bis(methanediyl-1H-1,2,3-triazole-1,4-diyl)}bisestra-1,3,5(10)-triene-3,17-diol], the “RNA synthesis, BrU incorporation (in words)” value with CCRF-CEM lymphoblasts [1] was “high rate of RNA synthesis”. Moreover, the “BrU, % of positive cells” value in the series with CCRF-CEM lymphoblasts [1] (1×IC50, 24 h) came to 65.14%; with CCRF-CEM lymphoblasts [1] (5×IC50, 24 h), 66.40%. Besides, the IC50 in series [2] is 420 ± 44 nM; in series [4] it was more than 50000 nM; in series [5], more than 50000 nM; in the series with U2OS (osteosarcoma), more than 50000 nM; on porcine brain tubulin it was 2010 ± 210 nM; in [9] it was more than 50000 nM. For the same molecule, the IC50 at 72 h in series [3] is less than 12.2 nM; in [7], more than 50000 nM; in [8] it was more than 50000 nM. Moreover, the “IC50 cytotoxic activity A549” value in series [5] is “did not exhibit activity”. Moreover, the “pH3Ser10, % of positive cells” value with CCRF-CEM lymphoblasts [6] (1×IC50, 24 h) came out at 6.27%; with CCRF-CEM lymphoblasts [6] (5×IC50, 24 h) it was 0.34%. Besides, the “IC50 cytotoxic activity U2OS” value in the series with U2OS (osteosarcoma) was “did not exhibit activity”. For the same molecule, on porcine brain tubulin, the “inhibitory activity against tubulin polymerisation (in words)” value is “comparable or better inhibitory activity; also recorded: most potent inhibitor of in vitro tubulin polymerisation”. In addition, the inhibition at 10 µM on porcine brain tubulin was 70.2%.
As to `C[C@]12CC[C@@H]3c4ccc(O)cc4CC[C@H]3[C@@H]1CC[C@@]2(O)c1cn(Cc2cccc(Cn3cc([C@]4(O)CC[C@H]5[C@@H]6CCc7cc(O)ccc7[C@H]6CC[C@@]54C)nn3)n2)nn1` [ED, reference compound], the “BrU, % of positive cells” value in the series on CCRF-CEM lymphoblasts [1] (1×IC50, 24 h) amounted to 34.33%; in the series on CCRF-CEM lymphoblasts [1] (5×IC50, 24 h), 15.43%. In addition, the IC50 was 580 ± 230 nM in series [2]; more than 50000 nM in [4]; more than 50000 nM in [5]; 6230 ± 700 nM in the series on U2OS (osteosarcoma); 2180 ± 1800 nM at porcine brain tubulin; more than 50000 nM in series [9]. For the same molecule, the IC50 at 72 h was 24.4 ± 17 nM in series [3], 1160 ± 250 nM in series [7] and more than 50000 nM in [8]. Also, the “pH3Ser10, % of positive cells” value stood at 8.08% in the series with CCRF-CEM lymphoblasts [6] (1×IC50, 24 h) and 48.71% with CCRF-CEM lymphoblasts [6] (5×IC50, 24 h). Also, the inhibition at 10 µM at porcine brain tubulin amounted to 55.6%.
